How the values were obtained:
human NOX1 = molecular target: T1, human NOX1 (Homo sapiens, UniProt Q9Y5S8); experiment: WST-1 O2•- detection in NOX1-expressing CHO cells; assay type: cell-based; conditions: WST-1, PMA 0.1 μM
T1 construct: expressed in transfected cells; host or cells: CHO
T1 sequence (Q9Y5S8 1-564): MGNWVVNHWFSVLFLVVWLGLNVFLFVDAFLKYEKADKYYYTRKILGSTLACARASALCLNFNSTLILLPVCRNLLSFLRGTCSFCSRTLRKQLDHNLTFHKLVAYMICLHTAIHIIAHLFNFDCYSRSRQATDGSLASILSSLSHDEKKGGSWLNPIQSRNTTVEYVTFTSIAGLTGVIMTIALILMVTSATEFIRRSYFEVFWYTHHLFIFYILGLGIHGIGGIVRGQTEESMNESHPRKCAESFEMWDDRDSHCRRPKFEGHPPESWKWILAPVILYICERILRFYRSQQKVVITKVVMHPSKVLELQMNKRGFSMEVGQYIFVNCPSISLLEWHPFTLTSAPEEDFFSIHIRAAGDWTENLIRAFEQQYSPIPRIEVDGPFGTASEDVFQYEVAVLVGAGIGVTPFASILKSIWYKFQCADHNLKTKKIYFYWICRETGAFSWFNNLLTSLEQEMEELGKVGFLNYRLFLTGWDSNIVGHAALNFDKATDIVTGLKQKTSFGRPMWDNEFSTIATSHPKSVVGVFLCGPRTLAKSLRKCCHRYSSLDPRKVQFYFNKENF
T1 sequence (P13498 1-195 partner): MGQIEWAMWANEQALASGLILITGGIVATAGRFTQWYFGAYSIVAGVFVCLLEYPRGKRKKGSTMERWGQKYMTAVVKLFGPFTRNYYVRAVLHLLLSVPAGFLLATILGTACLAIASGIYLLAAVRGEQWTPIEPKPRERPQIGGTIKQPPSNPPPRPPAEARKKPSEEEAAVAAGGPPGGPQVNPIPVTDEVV

[1] = DPPH free radical scavenging assay (absorbance); conditions: cell-free, DPPH in methanol, 15 min; read-out: Scavenging effect IC50 Absorbance DPPH
Procedure: This assay allows to detect H2O2 scavengers as well as HRP inhibitors. (iii) Another assay for determining antioxidant activity analyzes serial dilutions of compounds in the presence of free radical DPPH in methanol in transparent 96-well plates (200 μl/well). Absorbance was measured at 540 nm after 15 min incubation in the dark. All scavenging assays were performed with FlexStation 3 Multi-Mode Microplate Reader (Molecular Devices).

NOX5 = molecular target: T2, NOX5 (Homo sapiens, UniProt Q96PH1); experiment: NOX5 activity in purified membranes of HEK293 cells expressing NOX5 (WST-1, CBA); assay type: biochemical; conditions: for Inhibitory activity in NOX5 membrane assay: WST-1 / CBA, concentration not given
T2 construct: expressed in transfected cells
T2 sequence (Q96PH1 19-737 isoform Q96PH1-3 limits assumed): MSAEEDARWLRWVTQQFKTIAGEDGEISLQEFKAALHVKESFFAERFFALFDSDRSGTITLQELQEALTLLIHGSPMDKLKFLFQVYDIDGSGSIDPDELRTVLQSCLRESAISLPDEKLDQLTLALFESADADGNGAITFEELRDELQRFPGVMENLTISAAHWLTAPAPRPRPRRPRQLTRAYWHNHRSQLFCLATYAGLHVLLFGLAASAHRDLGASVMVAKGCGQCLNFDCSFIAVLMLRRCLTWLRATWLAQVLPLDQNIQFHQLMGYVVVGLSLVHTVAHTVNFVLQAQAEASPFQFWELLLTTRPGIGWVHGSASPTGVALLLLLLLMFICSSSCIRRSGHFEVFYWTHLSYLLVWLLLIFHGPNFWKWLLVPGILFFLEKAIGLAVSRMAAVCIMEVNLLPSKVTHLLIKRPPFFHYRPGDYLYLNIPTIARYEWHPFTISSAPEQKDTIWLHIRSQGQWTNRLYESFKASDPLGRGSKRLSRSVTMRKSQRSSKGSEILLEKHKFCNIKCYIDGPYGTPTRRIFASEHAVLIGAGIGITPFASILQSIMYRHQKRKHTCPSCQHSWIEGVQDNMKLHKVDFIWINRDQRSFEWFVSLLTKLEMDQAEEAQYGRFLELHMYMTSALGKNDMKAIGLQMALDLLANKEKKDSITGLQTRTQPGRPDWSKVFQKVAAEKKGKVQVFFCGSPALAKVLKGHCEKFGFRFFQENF
Procedure: PLB-985 (40 dishes 150 cm^2) were grown in suspension and differentiated by addition of 1.25% DMSO for 72 h. HEK293 cells expressing NOX5 (40 dishes 150 cm^2) were amplified until confluence and detached using trypsin-EDTA for 5 min followed by addition of 2 vol of pre-warmed complete growth media to inactivate trypsin. Collected cells were centrifuged at 4000 ×g for 10 min. Cells were washed with PBS and centrifuged at 1500 ×g for 10 min. The supernatant was discarded and the pellet was placed at −80 °C for at least 30 min. […] Samples were sonicated two times for 25 s (level 7, Branson Sonifier 250). Cell debris were removed by centrifugation at 800 ×g for 10 min at 4 °C. The supernatant was laid on a sucrose gradient consisting of a bottom layer of 1 mL 40% sucrose and an upper layer of 1 mL 17% sucrose. Ultracentrifugation was performed at 150,000 ×g in SW60 rotor for 30 min at 4 °C. Following separation, the upper cytosolic fraction was discarded and the cloudy membrane fraction was collected. Protein concentration was determined with Bradford reagent using BSA as a standard. Small aliquots were kept at −80 °C.
NOX2 containing membranes were used at 10 μg/mL of proteins in a reaction mixture containing 90 nM recombinant RacQ61L, 45 nM recombinant p67Np47 N chimeric protein (consisting of a fusion of the N-termini of human p67phox [residues 1–210] and p47phox [residues 1–286]), 90 μM SDS, 1 μM FAD-Na2 and 1 mM WST-1 or 800 μM CBA in PBS. The reaction mixture was dispensed in 96-well plates (transparent for WST-1 absorbance, black for CBA fluorescence) at 80 μL/well and the plate was incubated for 5 min at 37 °C. The reaction was initiated by addition of 20 μL/well NADPH at final concentration 100 μM. NOX5 containing membranes were used at 20 μg/mL of proteins in a reaction mixture containing 50 mM HEPES pH 7.4, 1 mM NTA, 1 mM EDTA, 1 mM BAPTA, 1 mM MgCl2, 5.5 μM phosphatidic acid, 1 μM FAD, 700 μM CaCl2 and 1 mM WST-1 or 800 μM CBA in Milli-Q H2O. The reaction mixture was dispensed in 96-well plates (transparent for absorbance, black for fluorescence) at 80 μL/well and 20 μL/well of NADPH at final concentration of 200 μM were added to initiate the reaction.
Reported NOX inhibitors were added in 96 well plates at a single concentration as indicated to which mix containing membrane fractions and all components of the NOX2 or NOX5 membrane assays were added except NADPH. After 2–3 min incubation, 200 μM NADPH was added to start the reaction.

COc1cc(C(C)=O)ccc1O [Apocynin, apocynin]
IC50 (human NOX1): > 50 µM | IC50 [1]: > 50 µM

c1ccc2c(c1)[I+]c1ccccc1-2 [DPI, diphenylene iodonium chloride]
IC50 [1]: > 50 µM | Inhibitory activity in NOX5 membrane assay (NOX5): potently inhibited

COc1cc(C(C)=O)cc(-c2cc(C(C)=O)cc(OC)c2O)c1O [Diapocynin, diapocynin]
IC50 (human NOX1): > 50 µM | IC50 [1]: > 50 µM

O=c1c2ccccc2[se]n1-c1ccccc1 [Ebselen, ebselen]
IC50 (human NOX1): 31.6 µM | IC50 [1]: > 50 µM | Inhibition of NOX5-dependent signal in membranes (NOX5; compound 50 μM): inhibited

Cc1c2c(=O)n(-c3ccccc3Cl)[nH]c2cc(=O)n1Cc1ccccn1 [GKT136901]
IC50 (human NOX1): > 50 µM | IC50 [1]: 21.7 µM

c1ccc(Cn2nnc3c(Sc4nc5ccccc5o4)ncnc32)cc1 [VAS2870, 3-benzyl-7-(2-benzoxazolyl)thio-1,2,3-triazolo[4,5-d]pyrimidine]
Inhibitory activity in NOX5 membrane assay (NOX5): no inhibitory activity | Inhibitory activity in NOX5 membrane assay (NOX5; listed as VAS280): some level of inhibition

Source: paper PMC6658998, “Pharmacological characterization of the seven human NOX isoforms and their inhibitors” (Redox Biology, 2019)
